# Test results published in patent US20060189613A1, “Sulphonamide Compounds that Modulate Chemokine Receptor Activity (CCR4)” (priority 2003, published 2006).
row,melting point [°C],SMILES
1,210 to 211,"COc1ccnnc1NS(=O)(=O)c1cccc(Cl)c1Cl [Example 1, 2,3-Dichloro-N-[4-methoxy-3-pyridazinyl]benzenesulphonamide]"
2,226 to 227,"COc1cc(Cl)nnc1NS(=O)(=O)c1cccc(Cl)c1Cl [Example 2, 2,3-Dichloro-N-[6-chloro-4-methoxy-3-pyridazinyl]benzenesulphonamide]"
3,244 to 245,"COc1cnc(Cl)nc1NS(=O)(=O)c1cccc(Cl)c1Cl [Example 7, 2,3-Dichloro-N-[2-chloro-5-methoxy-4-pyrimidinyl]benzenesulphonamide]"
4,278 to 279,"COc1cncnc1NS(=O)(=O)c1cccc(Cl)c1Cl [Example 8, 2,3-Dichloro-N-[5-methoxy-4-pyrimidinyl]benzenesulphonamide]"
5,190 to 191,"COc1cnc(C(F)(F)F)nc1NS(=O)(=O)c1cccc(Cl)c1Cl [Example 10, 2,3-Dichloro-N-[5-methoxy-2-trifluoromethyl-4-pyrimidinyl]benzenesulphonamide]"

# Continued, compound first:
row,SMILES,melting point [°C]
1,"O=S(=O)(Nc1nnc(Cl)cc1OCc1cccnc1)c1cccc(Cl)c1Cl [Example 3, 2,3-Dichloro-N-[6-chloro-4-(3-pyridinylmethoxy)-3-pyridazinyl]benzenesulphonamide]",216 to 217
2,"COc1ncc(NS(=O)(=O)c2cccc(Cl)c2Cl)c(OC)n1 [Example 5, 2,3-Dichloro-N-[2,4-dimethoxy-5-pyrimidinyl]benzenesulphonamide]",124 to 126
3,"COc1ncncc1NS(=O)(=O)c1cccc(Cl)c1Cl [Example 6, 2,3-Dichloro-N-[4-methoxy-5-pyrimidinyl]benzenesulphonamide]",204 to 211
4,"COc1cnc(Cl)nc1NS(=O)(=O)c1ccc(Cl)s1 [Example 11, 5-Chloro-thiophene-2-sulphonic acid, [2-chloro-5-methoxy-4-pyrimidinyl]amide]",201 to 202
5,"COc1cnc(C)nc1NS(=O)(=O)c1ccc(Cl)s1 [Example 12, 5-Chloro-thiophene-2-sulphonic acid, [5-methoxy-2-methyl-4-pyrimidinyl]amide]",249 to 250
6,"COc1cc(Cl)nnc1NS(=O)(=O)c1ccc(Cl)s1 [Example 13, 5-Chloro-N-[6-chloro-4-methoxy-3-pyridazinyl]thiophene-2-sulphonamide]",120 to 122
